“Also recorded” adds a separate entry of the source.
Key:
Type in all cases: cell-based
[1] = test system: A549 human lung cancer cells; assay: 72 hour MTT, A549 cells, single drugs and combinations; settings: 72 hour MTT A549 cells, read-out: Compound 401 (% Inhibition)
Experimental: (§1) Cell Viability Determination: For 3-(4,5 dimethylthiazol-2-yl)-2,5-diphenyltetrazolium (MTT) (Sigma-Aldrich, St. Louis, Mo.) analysis, cells were plated in 96 well plates at 10,000 cells per well. 24 hours after plating, compound was added to cells at indicated doses. […] following compound addition, MTT was added to each well (0.5 mg/ml, final concentration) and plates were incubated for an additional 2 hours at 37° C. Medium was then aspirated and the formazan product was solubilized in 100 μl of isopropyl alcohol. The absorbance of each well was measured at 570 nm using a microplate reader.
(§2) Paca2 human pancreatic cancer cells, A549 human lung cancer cells, and HepG2 human liver cancer cells (American Type Culture Collection) were cultured in Dulbecco's modified Eagle's medium containing 10% fetal bovine serum, 100 units/mL penicillin, 100 μg/mL streptomycin, and 2 mM L-glutamine. […] Erlotinib was from American Custom Chemicals (San Diego, Calif.). Gemcitabine was from Eli Lilly (Indianapolis, Ind.) in an aqueous 20 mM stock solution. Sorafenib was Mass.). Unless otherwise noted all compounds were solubilized in DMSO at 10 mM and aliquoted at −20° C. Exponentially growing Paca2 pancreatic cancer cells were seeded at 1,000 cells per well in 6-well plates and allowed to attach for 24 hours. Increasing concentrations of individual drugs and those in combination were then added to the media for another 24 hours. After 24 hours exposure, the drug was removed and fresh media was added for the next 10-14 days, allowing for colony formation. Cells were fixed and stained with GIEMSA (Gibco BRL). […] Results are an average of duplicate experiments. Alternatively, MTT assays were performed 72 hours post-treatment in A549 and HepG2 cells.

[2] = test system: Paca2 human pancreatic cancer cells; assay: Colony formation, Paca2 cells, single drugs and combinations; settings: Homo sapiens, read-out: Compound 401 (% Inhibition)
Experimental: as §2

[3] = test system: HepG2 human liver cancer cells; assay: 72 hour MTT, HepG2 cells, single drugs and combinations; settings: read-out: Compound 401 (% Inhibition)
Experimental: as §1, §2

[4] = test system: Hoechst side population cells; assay: Annexin V staining of Hoechst side population cells; settings: Hoechst side population cells treated with compound
Experimental: Hoechst Side Population: To identify and isolate side population (SP) and non-SP fractions, SW480 cells were removed from the culture dish with trypsin and EDTA, pelleted by centrifugation, washed with phosphate-buffered saline (PBS), and resuspended at 37° C. in Dulbecco's modified Eagle's medium (DMEM) containing 2% FBS and 1 mM HEPES. The cells were then labeled with Hoechst 33342 (Invitrogen) at a concentration of 5 μg/mL. The labeled cells were incubated for 120 minutes at 37° C., either alone or with 50 μM verapamil (Sigma-Aldrich, St. Louis). After staining, the cells were suspended in Hanks' balanced saline solution (HBSS; Invitrogen) containing 2% FBS and 1 mM HEPES, passed a through 40 μm mesh filter, and maintained at 4° C. until flow cytometry analysis. The Hoechst dye was excited at 350 nm, and its fluorescence was measured at two wavelengths using a 450 DF10 (450/20 nm band-pass filter) and a 675LP (675 nm long-pass edge filter) optical filter. The gating on forward and side scatter was not stringent, and only debris was excluded.
Analysis of Apoptosis: Cells treated with or without compound were harvested at 5 hours post treatment for Annexin-V staining. Collected cells were washed with PBS and resuspended in Annexin-V-FITC containing buffer and stained according to manufactures directions (Roche). Annexin-V positive cells were determined by Flow cytometry. […]

Question: Which inhibition at 0.25 µM ([1]; 401 alone 250 nM) does the source give for `CC(=O)c1cc2c(o1)C(=O)c1ccccc1C2=O` [Compound 401, 2-acetylnaphtho[2,3-b]furan-4,9-dione] here?
Answer: 36%

Question: And the inhibition at 0.5 µM ([1]; 401 alone 500 nM)?
Answer: 35%

Question: What about the inhibition at 0.066 µM ([2]; PaCa-2, 401 alone 66 nM) of the same compound?
Answer: 32%

Question: And the inhibition at 0.133 µM ([2]; PaCa-2, 401 alone 133 nM)?
Answer: 66%

Question: What about the inhibition at 0.125 µM ([3]; 401 alone 125 nM) of the same compound?
Answer: 7%

Question: And the inhibition at 0.25 µM ([3]; 401 alone 250 nM)?
Answer: 43%

Question: And the “Mode of cell death, Annexin V staining” value [4]?
Answer: dying cells are Annexin V positive; also recorded: apoptotic

— patent publication US10377731B2, “Compositions and methods for cancer treatment” (Boston Biomedical, Inc., priority 2007, dated 2019)
